From US10111435B2, “Herbicidal compositions containing N-(1,3,4-oxadiazol-2-yl)-aryl carboxylic acid amides” (BAYER CROPSCIENCE AKTIENGESELLSCHAFT, priority 2013, dated 2018)

Columns and labels:
Format in all cases: in vivo
[1] = system: Solanum nigrum (SOLNI); experiment: greenhouse post-emergence herbicidal efficacy against SOLNI
Experimental: (§1) All trials whose results are shown were conducted in a greenhouse by the methodology specified below. The effect of the inventive herbicidal compositions was examined on the following harmful plants 14 and 21 days after application:
(§2) Echinochloa crus-galli (ECHCG), Eleusine indica (ELEIN), Setaria viridis (SETVI), Amaranthus retroflexus (AMARE), Chenopodium album (CHEAL), Kochia scoparia (KCHSC), Solanum nigrum (SOLNI), Avena fatua (AVEFA), Bromus sterilis (BROST), Lolium multiflorum (LOLMU), Phalaris minor (PHAMI), Poa annua (POAAN), Galium aparine (GALAP), Matricaria inodora (MATIN) and Polygonum convolvulus (POLCO).
(§3) The harmful plant seeds were sown in pots (diameter 8 cm) with sandy loam soil and germinated under optimal conditions. The inventive herbicidal compositions or the active ingredients alone were applied post-emergence to the planted pots with a spray volume of 300 L/ha. The trial was conducted in a greenhouse under optimum growth conditions. The herbicidal effects were assessed visually by comparison of untreated and treated plants. The percentages mean: 0%=no effects, 100%=the plants die off completely). The percentages are used to calculate interactions between individual treatments and combination treatments according to S. R. Colby, Weeds 15, pages 20 to 22 (1967).
(§4) The abbreviations mean: • a.i.=active ingredient • E^C=expected value according to Colby (E^C=A+B−A×B/100) • Diff: =difference (%) of measured value from expected value (%) (measured value minus expected value)
(§5) Assessment: • measured value E is greater than E^C:->synergism (+ diff.) • measured value E equals E^C:->additive effect • measured value E is smaller than E^C:->antagonism(− diff.)

[2] = system: Avena fatua (AVEFA); experiment: greenhouse post-emergence herbicidal efficacy against AVEFA
Procedure, shortened: (§6)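 Seeds were sown in 8 cm pots of sandy loam and germinated under optimal conditions. Compositions or single active ingredients were sprayed post-emergence at 300 L/ha in the greenhouse. Visual % damage versus untreated plants (0% none, 100% complete kill) was scored 14 and 21 days after application, with Colby expected values (E^C=A+B−A×B/100) used to judge synergism.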

[3] = system: Bromus sterilis (BROST); experiment: greenhouse post-emergence herbicidal efficacy against BROST
Procedure, shortened: as §6

[4] = system: Kochia scoparia (KCHSC); experiment: greenhouse post-emergence herbicidal efficacy against KCHSC
Experimental: as §1, §2, §3, §4, §5

[5] = system: DIGSA; experiment: greenhouse post-emergence herbicidal efficacy against DIGSA
Experimental: as §1, §3, §4, §5

[6] = system: Polygonum convolvulus (POLCO); experiment: greenhouse post-emergence herbicidal efficacy against POLCO
Procedure, shortened: as §6

[7] = system: Lolium multiflorum (LOLMU); experiment: greenhouse post-emergence herbicidal efficacy against LOLMU
Procedure, shortened: as §6

[8] = system: Setaria viridis (SETVI); experiment: greenhouse post-emergence herbicidal efficacy against SETVI
Procedure, shortened: (§7)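 Greenhouse, optimum conditions; sandy-loam 8 cm pots; post-em spray 300 L/ha. Visual scoring vs untreated at 14/21 DAA, 0–100% scale.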

[9] = system: Amaranthus retroflexus (AMARE); experiment: greenhouse post-emergence herbicidal efficacy against AMARE
Experimental: as §1, §2, §3, §4, §5

[10] = system: Chenopodium album (CHEAL); experiment: greenhouse post-emergence herbicidal efficacy against CHEAL
Procedure, shortened: as §7

[11] = system: Poa annua (POAAN); experiment: greenhouse post-emergence herbicidal efficacy against POAAN
Procedure, shortened: as §6

[12] = system: Phalaris minor (PHAMI); experiment: greenhouse post-emergence herbicidal efficacy against PHAMI
Procedure, shortened: as §6

[13] = system: Galium aparine (GALAP); experiment: greenhouse post-emergence herbicidal efficacy against GALAP
Procedure, shortened: as §6

[14] = system: Matricaria inodora (MATIN); experiment: greenhouse post-emergence herbicidal efficacy against MATIN; details: 21 days after application
Procedure, shortened: as §6

[15] = system: Eleusine indica (ELEIN); experiment: greenhouse post-emergence herbicidal efficacy against ELEIN; details: for pest or weed control at 5 g/ha / pest or weed control at 20 g/ha: Eleusine indica, post-emergence; for pest or weed control at 5 g/ha: 5 g of a.i./ha; for pest or weed control at 20 g/ha: 20 g of a.i./ha
Procedure, shortened: as §7

[16] = system: Echinochloa crus-galli (ECHCG); experiment: greenhouse post-emergence herbicidal efficacy against ECHCG
Procedure, shortened: as §7

[17] = 14 days after application, 0.5 g of a.i./ha
[18] = 14 days after application, 2 g of a.i./ha
[19] = 21 days after application, 0.5 g of a.i./ha
[20] = 21 days after application, 2 g of a.i./ha
[21] = 14 days after application, g of a.i./ha: A1-7 2.5, saflufenacil 2
[22] = 21 days after application, g of a.i./ha: A1-7 10, saflufenacil 8
[23] = 14 days after application, g of a.i./ha: A1-7 2.5, saflufenacil 8
[24] = 14 days after application, g of a.i./ha: A1-60 2.5, isoproturon 1600
[25] = 14 days after application, g of a.i./ha: A1-60 10, isoproturon 400
[26] = 14 days after application, g of a.i./ha: A1-60 10, isoproturon 1600
[27] = 21 days after application, g of a.i./ha: A1-60 10, isoproturon 400
[28] = 14 days after application, 1 g of a.i./ha
[29] = 14 days after application, 4 g of a.i./ha
[30] = 21 days after application, 4 g of a.i./ha
[31] = 21 days after application, 1 g of a.i./ha
[32] = 14 days after application, g of a.i./ha: A1-60 2.5, isoproturon 400
[33] = 21 days after application, g of a.i./ha: A1-60 2.5, isoproturon 400
[34] = 21 days after application, g of a.i./ha: A1-60 10, isoproturon 1600
[35] = 14 days after application, 5 g of a.i./ha
[36] = 14 days after application, 20 g of a.i./ha
[37] = 21 days after application, 5 g of a.i./ha
[38] = 21 days after application, 20 g of a.i./ha
[39] = 336 h, 14 days after application
[40] = 504 h, 21 days after application

**Q.** Which Efficacy [1, 17] does the source give for `CCS(=O)(=O)c1c(C(F)(F)F)ccc(C(=O)Nc2nnc(C)o2)c1Cl` [A1-7] here?
**A.** The Efficacy was 10%.

**Q.** And the Efficacy [1, 18]?
**A.** The Efficacy was 20%.

**Q.** What about the Efficacy [1, 19] of the same molecule?
**A.** Its Efficacy is 0%.

**Q.** What about the Efficacy [1, 20] of the same molecule?
**A.** The Efficacy was 10%.

**Q.** What about the Efficacy [2, 21] of the same molecule?
**A.** The Efficacy was 15%.

**Q.** And the Efficacy [3, 22]?
**A.** Its Efficacy is 5%.

**Q.** What about the Efficacy [4, 17] of the same molecule?
**A.** Its Efficacy is 0%.

**Q.** What about the Efficacy [4, 19] of the same molecule?
**A.** Its Efficacy is 10%.

**Q.** And the Efficacy [5, 18]?
**A.** The Efficacy was 20%.

**Q.** And the Efficacy [5, 20]?
**A.** Its Efficacy is 10%.

**Q.** What about the Efficacy [6, 21] of the same molecule?
**A.** The Efficacy was 10%.

**Q.** And the Efficacy [6, 23]?
**A.** The Efficacy was 10%.

**Q.** And the Efficacy ([6]; 14 days after application, g of a.i./ha: A1-7 10, saflufenacil 2)?
**A.** Its Efficacy is 25%.

**Q.** And the Efficacy ([6]; 14 days after application, g of a.i./ha: A1-7 10, saflufenacil 8)?
**A.** Its Efficacy is 25%.

**Q.** And the Efficacy ([6]; 21 days after application, g of a.i./ha: A1-7 2.5, saflufenacil 2)?
**A.** Its Efficacy is 0%.

**Q.** And the Efficacy ([6]; 21 days after application, g of a.i./ha: A1-7 2.5, saflufenacil 8)?
**A.** The Efficacy was 0%.

**Q.** What about the Efficacy ([6]; 21 days after application, g of a.i./ha: A1-7 10, saflufenacil 2) of the same molecule?
**A.** Its Efficacy is 10%.

**Q.** And the Efficacy [6, 22]?
**A.** The Efficacy was 10%.

**Q.** What about the Efficacy [7, 21] of the same molecule?
**A.** The Efficacy was 0%.

**Q.** And the Efficacy [7, 23]?
**A.** Its Efficacy is 0%.

**Q.** What about the Efficacy [8, 19] of the same molecule?
**A.** The Efficacy was 30%.

**Q.** What about the Efficacy [8, 20] of the same molecule?
**A.** The Efficacy was 75%.

**Q.** And the Efficacy [9, 17]?
**A.** Its Efficacy is 30%.

**Q.** And the Efficacy [10, 17]?
**A.** Its Efficacy is 0%.

**Q.** And the Efficacy [10, 18]?
**A.** Its Efficacy is 50%.

**Q.** And the Efficacy [10, 19]?
**A.** The Efficacy was 10%.

**Q.** What about the Efficacy [10, 20] of the same molecule?
**A.** Its Efficacy is 20%.

**Q.** Which results are given for `Cc1nnc(NC(=O)c2ccc(C(F)(F)F)c([S+](C)[O-])c2C)o1` (centres unmarked) [A1-60]?
**A.** Efficacy [11, 24]: 0%; Efficacy [11, 25]: 10%; Efficacy [11, 26]: 10%; Efficacy [11, 27]: 20%; Efficacy [1, 28]: 65%; Efficacy [1, 29]: 65%; Efficacy [1, 30]: 30%; Efficacy [1, 31]: 20%; Efficacy [12, 32]: 10%; Efficacy [12, 25]: 25%; Efficacy [12, 26]: 25%; Efficacy [12, 33]: 0%; Efficacy [12, 27]: 20%; Efficacy [2, 32]: 0%; Efficacy [2, 25]: 0%; Efficacy [2, 26]: 0%; Efficacy [2, 33]: 0%; Efficacy [2, 27]: 5%; Efficacy [2, 34]: 5%; Efficacy [3, 32]: 0%; Efficacy [3, 24]: 0%; Efficacy [3, 25]: 15%; Efficacy [3, 26]: 15%; Efficacy [3, 27]: 5%; Efficacy [3, 34]: 5%; Efficacy [5, 29]: 93%; Efficacy [5, 30]: 70%; Efficacy [13, 32]: 25%; Efficacy [13, 24]: 25%; Efficacy [13, 25]: 30%; Efficacy [13, 26]: 30%; Efficacy [13, 33]: 0%; Efficacy ([13]; 21 days after application, g of a.i./ha: A1-60 2.5, isoproturon 1600): 0%; Efficacy [13, 27]: 0%; Efficacy [13, 34]: 0%; Efficacy ([14]; g of a.i./ha: A1-60 2.5, isoproturon 400): 0%; Efficacy ([14]; g of a.i./ha: A1-60 10, isoproturon 400): 40%; Efficacy [7, 32]: 0%; Efficacy [7, 24]: 0%; Efficacy [7, 25]: 0%; Efficacy [7, 26]: 0%; Efficacy [7, 27]: 3%; Efficacy [7, 34]: 3%; Efficacy [8, 28]: 70%; Efficacy [8, 29]: 85%; Efficacy [8, 30]: 70%; Efficacy [8, 31]: 50%; Efficacy [9, 29]: 70%; Efficacy [9, 30]: 60%; Efficacy [9, 31]: 20%; Efficacy [15, 28]: 70%; Efficacy [15, 29]: 90%; Efficacy [15, 30]: 75%; Efficacy [15, 31]: 40%; Efficacy [16, 28]: 65%; Efficacy [16, 29]: 90%; Efficacy [16, 30]: 75%; Efficacy [16, 31]: 40%

**Q.** Which results are given for `CCOC(=O)[C@@H](C)Oc1ccc(Oc2nc3ccc(Cl)cc3o2)cc1` [fenoxaprop-P-ethyl]?
**A.** Efficacy [1, 35]: 0%; Efficacy [1, 36]: 0%; Efficacy [1, 37]: 0%; Efficacy [1, 38]: 0%; Efficacy [4, 35]: 0%; Efficacy [4, 36]: 0%; Efficacy [4, 38]: 0%; Efficacy [5, 35]: 30%; Efficacy [5, 37]: 10%; Efficacy [8, 38]: 80%; Efficacy [9, 35]: 0%; Efficacy [9, 36]: 0%; Efficacy [10, 35]: 0%; Efficacy [10, 36]: 0%; Efficacy [10, 37]: 0%; Efficacy [10, 38]: 0%

**Q.** Which results are given for `CSc1nnc(C(C)(C)C)c(=O)n1N` [metribuzin]?
**A.** Efficacy [1, 35]: 0%; Efficacy [1, 36]: 0%; Efficacy [1, 37]: 0%; Efficacy [1, 38]: 0%; Efficacy [4, 35]: 20%; Efficacy [4, 36]: 20%; Efficacy [4, 37]: 0%; Efficacy [4, 38]: 10%; Efficacy [5, 35]: 0%; Efficacy [5, 36]: 20%; Efficacy [8, 35]: 10%; Efficacy [8, 36]: 30%; Efficacy [8, 37]: 0%; Efficacy [8, 38]: 0%; Efficacy [9, 35]: 20%; Efficacy [9, 36]: 30%; Efficacy [9, 37]: 0%; Efficacy [9, 38]: 10%; Efficacy [10, 35]: 30%; Efficacy [10, 36]: 30%; Efficacy [10, 37]: 20%; Efficacy [10, 38]: 20%; pest or weed control at 5 g/ha [15, 39]: 10%; pest or weed control at 20 g/ha [15, 39]: 20%; pest or weed control at 5 g/ha [15, 40]: 0%; pest or weed control at 20 g/ha [15, 40]: 0%; Efficacy [16, 35]: 10%; Efficacy [16, 36]: 30%; Efficacy [16, 37]: 0%; Efficacy [16, 38]: 0%
